The supplement of paper PMC10307832

Tests used:
Test in all cases: relative viability (nuclei count vs DMSO), 5 days (fraction); higher = more cells survive
[1] = compound: C1CC(C1)(C(=O)O)C(=O)O.[NH2-].[NH2-].[Pt+2] [Carboplatin] + CC(C)C[C@H](NC(=O)[C@H](Cc1ccccc1)NC(=O)c1cnccn1)B(O)O [Bortezomib] (partner 0.002 µM)
Summary of the method: (§1)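 Lung cancer cell lines were seeded in 1536-well plates and dosed by pin tool the next day, with either a single drug or a fixed anchor-drug dose combined with five library-drug doses (not always all listed) spaced in √10 steps. Five days later, one step fixed the cells and stained their nuclei (final 0.05% Triton X-100, 1% formaldehyde, 1 ug/ml Hoechst), and nuclei were counted on 4× images. Relative viability is the nuclei count in treated wells divided by the count in vehicle wells, and each value is the median of duplicate plates.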

[2] = compound: C1CC(C1)(C(=O)O)C(=O)O.[NH2-].[NH2-].[Pt+2] [Carboplatin] + C[C@]1(O)C[C@@H](c2nc(-c3ccc4ccc(-c5ccccc5)nc4c3)c3c(N)nccn32)C1 [Linsitinib] (partner 1 µM)
Summary of the method: as §1

[3] = compound: C1CC(C1)(C(=O)O)C(=O)O.[NH2-].[NH2-].[Pt+2] [Carboplatin] + N=C(N)NC(=N)NCCc1ccccc1 [Phenformin] (partner 250 µM)
Summary of the method: as §1

[4] = compound: NS(=O)(=O)OC[C@@H]1C[C@@H](n2ccc3c(N[C@H]4CCc5ccccc54)ncnc32)C[C@@H]1O [MLN4924] + Cc1nc(Nc2ncc(C(=O)Nc3c(C)cccc3Cl)s2)cc(N2CCN(CCO)CC2)n1 [Dasatinib] (partner 0.075 µM)
Summary of the method: as §1

Cell Line	relative viability ([1]; first compound 0.08 µM)	relative viability ([1]; first compound 0.253 µM)	relative viability ([1]; first compound 0.8 µM)	relative viability ([1]; first compound 2.53 µM)	relative viability ([1]; first compound 8 µM)	relative viability ([2]; first compound 0.08 µM)	relative viability ([2]; first compound 0.253 µM)	relative viability ([2]; first compound 0.8 µM)	relative viability ([2]; first compound 2.53 µM)	relative viability ([2]; first compound 8 µM)	relative viability ([3]; first compound 0.08 µM)	relative viability ([3]; first compound 0.253 µM)	relative viability ([3]; first compound 0.8 µM)	relative viability ([3]; first compound 2.53 µM)	relative viability ([3]; first compound 8 µM)	relative viability ([4]; first compound 0.04 µM)	relative viability ([4]; first compound 0.1265 µM)	relative viability ([4]; first compound 0.4 µM)	relative viability ([4]; first compound 1.265 µM)	relative viability ([4]; first compound 4 µM)
A-427	0.984	1.11	0.904	0.905	1.01	1.07	1.08	1.03	1.02	1.12	0.428	0.385	0.32	0.285	0.383	0.367	0.529	0.248	0.145	0.179
SW 1573	1.09	1	1.12	1.05	0.808	0.757	0.621	0.642	0.738	0.557	0.38	0.354	0.414	0.359	0.265	0.697	0.634	0.247	0.0507	0.0578
PC-14	0.846	0.845	0.757	0.868	0.437	0.979	0.931	0.939	0.921	0.55	0.807	0.592	0.53	0.383	0.274	0.304	0.294	0.195	0.0356	0.0313
LOU-NH91	0.581	0.52	0.54	0.472	0.495	1.11	0.9	0.924	0.946	0.891	0.871	0.646	0.714	0.708	0.675	0.554	0.708	0.778	0.494	0.415
BEN	0.837	0.889	0.988	0.898	0.782	1.01	1.05	0.722	0.748	0.777	0.233	0.275	0.258	0.264	0.248	0.309	0.252	0.198	0.155	0.146
NCI-H2085	1.24	1.2	1.03	1	0.82	0.943	0.967	0.845	0.858	0.764	0.88	0.741	0.695	0.737	0.775	0.215	0.226	0.339	0.393	0.292
LCLC-103H	1.13	1.33	1.06	1.24	1	1.15	1.1	1.05	1.21	1.04	0.325	0.357	0.347	0.32	0.348	0.452	0.569	0.653	0.141	0.112
ABC-1	0.291	0.442	0.354	0.355	0.335	0.633	0.939	0.779	0.864	0.703	0.226	0.19	0.248	0.251	0.226	0.426	0.433	0.302	0.213	0.237
NCI-H661	0.915	0.856	0.716	0.613	0.763	0.555	0.705	0.529	0.44	0.541	0.249	0.286	0.259	0.276	0.301	1	1.05	0.556	0.256	0.362
NCI-H1792	1.06	0.933	0.885	0.844	0.862	0.61	0.518	0.528	0.393	0.503	0.318	0.317	0.192	0.203	0.237	0.725	0.819	1.03	0.902	0.762
H3255	0.832	0.762	0.874	0.865	0.526	0.971	0.941	0.949	0.87	0.722	0.291	0.381	0.395	0.349	0.364	0.314	0.349	0.296	0.256	0.235
NCI-H1563	1.02	0.886	0.937	0.876	0.77	1.32	1.13	1.22	1.26	1.04	0.691	0.668	0.672	0.7	0.631	0.67	0.819	0.714	0.446	0.426
EMC-BAC-2	1.14	1.02	1.13	1.05	0.957	0.84	0.799	0.801	0.804	0.717	0.559	0.581	0.52	0.521	0.461	0.584	0.572	0.32	0.191	0.159
NCI-H1666	0.842	0.776	0.789	0.774	0.724	0.823	0.879	0.747	0.794	0.458	0.612	0.6	0.531	0.565	0.49	0.898	0.781	0.503	0.238	0.28
HCC-366	1.08	1.05	1.09	0.957	0.685	0.848	0.595	0.48	0.437	0.265	0.619	0.637	0.662	0.575	0.467	0.67	0.702	0.967	0.627	0.0684
LCLC-97TM1	0.723	0.62	1.25	0.844	0.375	0.177		0.17	0.195	0.192	0.483	0.399	0.421	0.438	0.394	1.01	0.683	0.767	0.113	0.104

Cell Line	relative viability ([1]; first compound 0.08 µM)	relative viability ([1]; first compound 0.253 µM)	relative viability ([1]; first compound 0.8 µM)	relative viability ([1]; first compound 2.53 µM)	relative viability ([1]; first compound 8 µM)	relative viability ([2]; first compound 0.08 µM)	relative viability ([2]; first compound 0.253 µM)	relative viability ([2]; first compound 0.8 µM)	relative viability ([2]; first compound 2.53 µM)	relative viability ([2]; first compound 8 µM)	relative viability ([3]; first compound 0.08 µM)	relative viability ([3]; first compound 0.253 µM)	relative viability ([3]; first compound 0.8 µM)	relative viability ([3]; first compound 2.53 µM)	relative viability ([3]; first compound 8 µM)	relative viability ([4]; first compound 0.04 µM)	relative viability ([4]; first compound 0.1265 µM)	relative viability ([4]; first compound 0.4 µM)	relative viability ([4]; first compound 1.265 µM)	relative viability ([4]; first compound 4 µM)
NCI-H2405	1.03	1	0.994	0.912	0.89	0.957	0.871	0.882	0.833	0.842	0.455	0.379	0.369	0.38	0.383	0.39	0.491	0.428	0.242	0.205
NCI-H1915	0.984	1.01	0.954	0.845	0.487	1.07	1.11	1.04	1.01	0.723	0.376	0.389	0.364	0.353	0.301	0.352	0.353	0.318	0.222	0.177
NCI-H650	0.966	0.852	0.868	0.764	0.388	1.15	0.859	0.982	0.848	0.503	0.495	0.451	0.398	0.428	0.398	0.407	0.418	0.236	0.215	0.193
NCI-H596	1.21	1.27	0.989	0.886	0.73	1.15	1.09	0.904	0.809	0.771	0.871	0.767	0.768	0.638	0.67	0.623	0.594		0.644	0.744
NCI-H2087	0.945	0.699	0.781	0.833	0.521	1.09	0.857	0.782	0.871	0.585	0.493	0.48	0.383	0.424	0.332	0.742	0.574	0.533	0.126	0.0652
RERF-LC-KJ	1.22	1.2	1.19	1.18	0.937	0.913	0.895	0.97	0.807	0.726	0.45	0.387	0.386	0.335	0.317	0.717	0.661	0.266	0.206	0.242
NCI-H2126	1.14	1.14	1.15	1.15	1.04	0.724	0.741	0.713	0.687	0.667	0.591	0.525	0.537	0.503	0.492	0.647	0.617	0.55	0.201	0.23
NCI-H2228	1.05	1.35	1.07	0.905	0.467	0.601	1.08	0.719	0.653	0.641	0.26	0.342	0.294	0.257	0.282	0.524	0.638	0.14	0.107	0.11
SK-LU-1	1.79	1.26	1.44	1.21	0.582	1.23	1.02	1.11	1.06	0.624	0.78	0.578	0.44	0.533	0.41	0.217	0.249	0.12	0.117	0.141
HARA	1.06	1.13	1.09	1.01	0.939	0.94	0.985	0.703	0.853	0.904	0.466	0.518	0.372	0.426	0.425	0.362	0.358	0.311	0.0814	0.0506
EPLC-272H	0.86	1.1	0.972	1.01	0.877	1.17	1.32	1.01	1.11	1.01	0.345	0.347	0.309	0.298	0.313	0.499	0.448	0.071	0.108	0.11
COR-L 105	0.89	0.745	0.832	0.794	0.424	0.88	1.02	0.681	0.792	0.572	0.576	0.418	0.481	0.411	0.373	0.398	0.289	0.33	0.222	0.225
NCI-H727	1.08	1.01	0.88	0.774	0.471	0.456	0.298	0.314	0.347	0.277	0.504	0.652	0.454	0.497	0.365	0.374	0.404	0.305	0.293	0.266
EKVX	1.06	1.13	1.01	1.06	0.976	1.13	1.07	0.849	0.847	0.893	0.248	0.214		0.227	0.22	0.588	0.261	0.471	0.193	0.238
NCI-H1437	0.526	0.486	0.598	0.453	0.425	1.06	1.02	0.95	0.859	0.876	0.29	0.303	0.294	0.301	0.299	0.276	0.456	0.556	0.235	0.11
PC-3 [JPC-3]	0.928	0.81	0.748	0.798	0.742	0.953	0.942	0.888	0.919	0.931	0.486	0.461	0.449	0.473	0.456	1.04	1.09	0.897	0.36	0.27
